From PubChem BioAssay (NCI)
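Tested at 5 concentrations; 48 h exposure; 96-well plates; endpoints linearly interpolated, else capped at highest concentration. GI50 marks 50% less growth. TGI: total growth inhibition.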

Columns and labels:
Experiment in all cases: NCI-60 cell line screen, 48 h
A498 renal = test system: A498 renal
BT-549 breast = test system: BT-549 breast
MOLT-4 leukemia = test system: MOLT-4 leukemia
OVCAR-4 ovarian = test system: OVCAR-4 ovarian
RPMI-8226 leukemia = test system: RPMI-8226 leukemia
RXF 393 renal = test system: RXF 393 renal
SF-268 CNS = test system: SF-268 CNS
SK-MEL-5 melanoma = test system: SK-MEL-5 melanoma
UACC-257 melanoma = test system: UACC-257 melanoma
UO-31 renal = test system: UO-31 renal

SMILES	TGI (A498 renal) [µM]	TGI (BT-549 breast) [µM]	TGI (MOLT-4 leukemia) [µM]	TGI (OVCAR-4 ovarian) [µM]	TGI (RPMI-8226 leukemia) [µM]	TGI (RXF 393 renal) [µM]	TGI (SF-268 CNS) [µM]	TGI (SK-MEL-5 melanoma) [µM]	TGI (UACC-257 melanoma) [µM]	TGI (UO-31 renal) [µM]	GI50 (A498 renal) [µM]	GI50 (BT-549 breast) [µM]	GI50 (MOLT-4 leukemia) [µM]	GI50 (OVCAR-4 ovarian) [µM]	GI50 (RPMI-8226 leukemia) [µM]	GI50 (RXF 393 renal) [µM]	GI50 (SF-268 CNS) [µM]	GI50 (SK-MEL-5 melanoma) [µM]	GI50 (UACC-257 melanoma) [µM]	GI50 (UO-31 renal) [µM]
O=C(C(Cl)=C(N1CCOCC1)N1CCOCC1)C(Cl)Cl	> 100	> 100	> 100	> 100	> 100	> 100	> 100	> 100	> 100	> 100										
O=c1[nH]nc(Cc2ccccc2)n1/N=C/c1ccncc1	> 100	> 100	> 100	> 100	> 100	> 100	> 100	> 100	> 100	> 100										
Cc1ccc(/C=C2\Cc3c(C)cc(C)cc3C2=O)c(C(=O)O)c1	84.1	> 100	> 100	> 100	53.1	88.6	> 100	85.2	> 100	> 100										
O=C1CSC2=NC3=C(COC/C3=C\c3ccc(Br)cc3)C(c3ccc(Br)cc3)N12 (stereo not given)	> 100	> 100	64.2	> 100	> 100	> 100	> 100	> 100	> 100	> 100										
Nc1nn2c(=O)c3ccccc3nc2s1	> 100	77.9	53.1	> 100	> 100	> 100	> 100	> 100	> 100	> 100										
C[n+]1c(-c2ccc(/C=C/C=N\NC(=O)c3ccc(C(=O)N/N=C\C=C\c4ccc(-c5cn6ccccc6[n+]5C)cc4)cc3)cc2)cn2ccccc21	> 100	> 100	> 100	> 100	> 84.6	> 100	> 100	> 100	> 100	> 100										
COc1ccc(N(C(=O)Nc2ccc(Cl)c(Cl)c2)C2c3cccn3C(=O)N2c2ccc(Cl)c(Cl)c2)cc1 (stereo not given)	> 100	> 100	> 100	> 100	> 100	> 100	> 100	> 100	> 100	> 100										
CC(C)(C)c1cc(C(=O)/C=C/c2ccc3c(c2)OCO3)cc(C(C)(C)C)c1O	> 56.4	27.2	> 26.6	78.7	16.9	7.58	> 41.6	16.6	22.1	> 81										
CCOC(=O)c1cn2c(n1)sc1cc(Cl)cc(Cl)c12	> 100	> 100	> 100	> 100	> 100	> 100	> 100	> 100	> 100	> 100										
CCCCCCCCCc1nn2c(Cc3ccccc3)nnc2s1	34.2	33.6	59.3	54.6	77.2	38.3	32.4	30.1	54.1	25.8										
COc1cc(/C=C/C=C2\CC/C(=C\C=C\c3ccc(O)c(OC)c3)C2=O)ccc1O	> 100	> 100	22.2	> 100	> 100	77.7	> 100	> 100	> 100	> 100										
Cn1c2ccccc2c(=O)c2c(O)cc3c(c21)C=CC1(CCCCC1)O3	> 10	> 10	> 10	> 10	> 10	> 10	> 10	> 10	> 10	> 10										
NS(=O)(=O)c1cccc(NC(=S)NC(=O)Nc2ccc(Cl)c(Cl)c2)c1	26.3	32.1	37.6	76.9	41.7	58.9	56.4	30.8	> 100	37.8										
COc1ccc(CN2C3CC2CN(c2ccc(-c4cc(OCC(C)(C)O)cn5ncc(C#N)c45)cn2)C3)cn1	3.7	> 100	> 100	> 100	> 100	9.45	> 100	> 100	> 100	> 100	0.51	3.34	52.9	3.63	> 100	2.18	4.6	> 100	> 100	7.32
CO[C@@H]1O[C@H](C(=O)c2ccccc2)[C@H]2OC(C)(C)O[C@@H]12	> 100	> 100	> 100	> 100	> 100	> 100	> 100	> 100	> 100	> 100										
CC(C)OC(=O)OCSc1ccccc1N=Cc1cccc([N+](=O)[O-])c1	> 10	> 10	> 10	> 10	> 10	> 10	> 10	> 10	> 10	> 10										
Cc1c2c(OCC3CCCCO3)nn(C)c(=O)c2c(C)n1-c1ccccc1 (stereo not given)	28.3	38.2	> 100	32.8	> 100	34.3	30.7	29.1	34.9	31.2										
